{"source": "patent US20120232251A1", "about": "“GLUCOSE SENSOR” (King's College London, priority 2009, published 2012)", "key": {"[1]": {"assay": "Steady-state fluorescence intensity response of badan-labelled GBP mutants to glucose in PBS", "type": "binding", "conditions": "for Δ Fluorescence (%) (maximal change in fluorescence intensity with addition of glucose) / Kd: badan-labelled GBP mutant; for Δ Fluorescence (%) (maximal change in fluorescence intensity with addition of glucose): PBS, saturating glucose; for change in fluorescence intensity on glucose addition (in words): increasing glucose, up to 1M; for Kd: in PBS, read-out: Kd (mM) binding constant for glucose", "procedure": "(§1) To label GBP mutants with badan, 50 μM protein was dissolved in 5 mM Tris(2-carboxyethyl)phosphine in phosphate-buffered saline (PBS) pH 7.4, and then a 10-fold excess of dye (500 μM) was added and the mixture incubated overnight at 4° C., after which it was purified on a Sephadex G-25 gel-filtration column.\n(§2) Steady-state fluorescence intensity was recorded on a Perkin-Elmer LS50B fluorimeter (Perkin Elmer Instruments, Beaconsfield, UK). The excitation and emission wavelengths of badan were 400 and 550 nm respectively. All data were obtained at room temperature using quartz cuvettes with sample volume of 100 μL. The labelled protein was incubated with increasing amounts of D-glucose for 15-20 min at room temperature before fluorescence was recorded.\n(§3) The binding constant, Kd, was calculated from the sigmoidal dose-response curves using Prism 5 software (GraphPad, San Diego, Calif., USA). Lifetime values were obtained from fluorescence transients using the TR12 analysis package (courtesy of Dr. Paul Barber, Gray Cancer Institute of Radiation Oncology and Biology, Oxford University, Oxford, UK). Global analysis was applied to the entire data set of twelve transients as described for the H152C mutant previously."}, "[2]": {"conditions": "cited from earlier work"}, "[3]": {"conditions": "cited from earlier work; for fluorescence change: autofluorescence of the protein; for Kd: monitored by the autofluorescence of GBP [32], read-out: Kd for glucose"}, "[4]": {"assay": "Steady-state fluorescence intensity response of badan-labelled GBP mutant to glucose in serum", "type": "binding", "procedure": "as §1\nVenous blood samples from healthy volunteers were collected in Vacuette tubes. The specimens were incubated at room temperature for 4 days to allow blood clotting and glycolysis. The samples were then centrifuged at 3500 g for 20 min and serum removed, pooled and stored until use. The glucose concentrations of serum samples were determined using a hexokinase-based assay (Sigma).\nas §2, with “All data were obtained at room temperature using quartz cuvettes with sample volume of 100 μL.” left out\nas §3, with “Global analysis was applied to the entire data set of twelve transients as described for the H152C mutant previously.” left out"}, "[5]": {"conditions": "prior-art reports, read-out: Kd / binding constant for glucose"}}, "note": "Read-outs that look alike come from different tables or passages of the source.", "data": [{"substance": "H152C/F16A: GBP double mutant labelled at 152C with badan", "values": [{"measurement": "binding of glucose (in words)", "setting": "[1]; badan-labelled", "result": "abolished the binding of glucose"}, {"measurement": "Δ Fluorescence (%) (maximal change in fluorescence intensity with addition of glucose)", "setting": "[1]", "result": 0, "unit": "%"}, {"measurement": "change in fluorescence intensity on glucose addition (in words)", "setting": "[1]; badan-labelled, listed as F16A mutation with H152C", "result": "no change of fluorescence intensity"}, {"measurement": "change in fluorescence intensity on glucose addition (in words)", "setting": "[1]; badan-labelled, listed as F16A/H152C-badan", "result": "no change in fluorescence"}]}, {"substance": "Q26C: GGBP with Gln at position 26 mutated to Cys (Tolosa et al)", "values": [{"measurement": "Kd / binding constant for glucose (in words)", "setting": "[2]; prior-art reports", "result": "micromolar range"}]}, {"substance": "L238S: GBP mutant L238S previously reported", "values": [{"measurement": "weakening of the binding of glucose to GBP", "setting": "[2]; previously reported [31]", "result": "ten-fold"}]}, {"substance": "F16A: GBP mutant F16A, monitored by autofluorescence (Sakaguchi-Mikami et al)", "values": [{"measurement": "fluorescence change", "setting": "[3]", "result": "about 10%"}, {"measurement": "Kd", "setting": "[3]", "result": 200, "unit": "µM"}]}, {"substance": "L255C: GGBP mutant L255C (Ge et al)", "values": [{"measurement": "Kd / binding constant for glucose (in words)", "setting": "[2]; prior-art reports", "result": "micromolar range"}]}, {"substance": "D14E/F16A: GBP two-mutant D14E/F16A, monitored by autofluorescence (Sakaguchi-Mikami et al)", "values": [{"measurement": "fluorescence change", "setting": "[3]", "result": "about 10%"}, {"measurement": "Kd", "setting": "[3]", "result": 3900, "unit": "µM"}]}, {"substance": "H152C/L238S: GBP double mutant labelled at 152C with badan", "values": [{"measurement": "Δ Fluorescence (%) (maximal change in fluorescence intensity with addition of glucose)", "setting": "[1]", "result": 200, "unit": "%"}, {"measurement": "Kd", "setting": "[1]", "result": 0.6, "unit": "mM"}]}, {"substance": "H152C/A213R: GBP double mutant labelled at 152C with badan", "values": [{"measurement": "Δ Fluorescence (%) (maximal change in fluorescence intensity with addition of glucose)", "setting": "[1]", "result": "~500", "unit": "%"}, {"measurement": "Kd", "setting": "[1]", "result": 0.6, "unit": "mM"}]}, {"substance": "E149C/A213S/L238S: GGBP triple mutant reported by Hsieh et al", "values": [{"measurement": "Kd", "setting": "[2]; [5]", "result": 0.5, "unit": "mM"}]}, {"substance": "E149C/A213C/L238S(GGBP): GGBP triple mutant attached to Nile red (Thomas et al 2006)", "values": [{"measurement": "change (maximal increase) in fluorescence intensity on addition of glucose", "setting": "[2]; prior-art reports", "result": 50, "unit": "%"}, {"measurement": "change (maximal increase) in fluorescence intensity on addition of glucose", "setting": "[2]; prior-art reports, listed as GBP attached to Nile red", "result": "about 50%"}, {"measurement": "Kd", "setting": "[2]; [5]", "result": 7, "unit": "mM"}]}, {"substance": "H152C/A213R/L238S: E. coli glucose/galactose binding protein triple mutant labelled at cysteine 152 with badan", "values": [{"measurement": "Δ Fluorescence (%) (maximal change in fluorescence intensity with addition of glucose)", "setting": "[4]", "result": 180, "unit": "%"}, {"measurement": "Kd", "setting": "[4]; read-out: Kd (mM) binding constant for glucose", "result": 14, "unit": "mM"}, {"measurement": "Δ Fluorescence (%) (maximal change in fluorescence intensity with addition of glucose)", "setting": "[1]", "result": 200, "unit": "%"}, {"measurement": "Kd", "setting": "[1]", "result": 11, "unit": "mM"}]}, {"substance": "GBP: unmutated glucose/galactose binding protein of E. coli", "values": [{"measurement": "Kd", "setting": "[3]", "result": 0.2, "unit": "µM"}]}, {"substance": "A213R: GBP having a single mutation of A213R (Amiss et al)", "values": [{"measurement": "Kd", "setting": "[2]; Amiss et al 2007, read-out: glucose affinity", "result": "~1", "unit": "mM"}]}, {"substance": "E149C A213R L238S: GBP triple mutant coupled to the IANBD fluorophore (Amiss et al)", "values": [{"measurement": "change in fluorescence intensity upon glucose binding (in words)", "setting": "[2]; coupled to the IANBD fluorophore, Amiss et al", "result": "fifty percent"}]}]}
